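Following 48 hours of exposure in 96-well plates, responses at five concentrations were used to interpolate endpoints linearly. Here, GI50 denotes the concentration required for 50% inhibition of growth.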 Active and inactive are the calls of the source. No stated cut-off is given here; in the data, active = GI50 up to about 1.1 µM and inactive = higher.

Results on four compounds are retold here after ChEMBL document CHEMBL1201862, “PubChem BioAssay data set” (2004).

Test systems include HCT-116; HCT-15; HL-60; HOP-92; K562; MOLT-4; NCI/ADR-RES; OVCAR-3; OVCAR-4; OVCAR-5; SK-MEL-2; SK-MEL-5; SN12C; SW-620; U-251; UACC-257; UO-31; KM12.
Common to all, as to assay: NCI tumour cell line growth inhibition, 48 h

With `COC(Cc1cc(C(O)(c2ccc(C(C)(C)C)cc2)c2cc(CC(OC)(c3cc(C(OC)(c4ccc(C(C)(C)C)cc4)c4ccc(C(C)(C)C)cc4)c(C)cc3C)c3cc(C(OC)(c4ccc(C(C)(C)C)cc4)c4ccc(C(C)(C)C)cc4)c(C)cc3C)c(C)cc2C)c(C)cc1C)(c1cc(C(OC)(c2ccc(C(C)(C)C)cc2)c2ccc(C(C)(C)C)cc2)c(C)cc1C)c1cc(C(OC)(c2ccc(C(C)(C)C)cc2)c2ccc(C(C)(C)C)cc2)c(C)cc1C`, the GI50 in the test with HCT-116 was > 75 µM (inactive); in the test on HCT-15, more than 75 µM; in the test on HL-60 it was > 75 µM (inactive); in the test on HOP-92, > 75 µM (inactive); in the test with K562 it was > 75 µM (inactive); with MOLT-4, > 75 µM (inactive). For the same compound, the GI50 in the test with NCI/ADR-RES, in the test with OVCAR-3, in the test with OVCAR-4, with OVCAR-5, in the test with SK-MEL-2 and with SK-MEL-5 was > 75 µM (inactive) each time. For the same compound, the GI50 in the test on SN12C, with SW-620, with U-251, in the test with UACC-257 and with UO-31 was > 75 µM (inactive) throughout.

As to `CC(=O)c1c(-c2ccco2)c(C#N)c(=S)n(C2OC(CO)C(O)C(O)C2O)c1C` (configuration not stated), the GI50 in the test on HCT-116 is > 100 µM (inactive); in the test on HCT-15 it was more than 100 µM; in the test with HL-60, 50.9 µM (inactive); in the test on K562 it was 95.5 µM (inactive); with KM12 it was > 100 µM (inactive); in the test on MOLT-4, 47.2 µM (inactive). In addition, the GI50 was 75.9 µM (inactive) in the test on NCI/ADR-RES; > 100 µM (inactive) in the test on OVCAR-3; 75 µM (inactive) in the test with OVCAR-4; > 100 µM (inactive) with OVCAR-5; 60.3 µM (inactive) in the test with SK-MEL-5; 71.3 µM (inactive) in the test with SN12C. In addition, the GI50 was > 100 µM (inactive) with SW-620, 51.1 µM (inactive) in the test with U-251, > 100 µM (inactive) in the test with UACC-257 and 56.6 µM (inactive) with UO-31.

`Cc1ccc([N+](=O)[O-])cc1S(=O)(=O)Nc1ccc(C2=NNC(c3ccccc3O)C2)cc1` (configuration not stated): the GI50 was 21.9 µM (inactive) in the test on HCT-116; 21.2 µM in the test on HCT-15; 12.1 µM (inactive) in the test with HL-60; 79.3 µM (inactive) in the test on HOP-92; 24.5 µM (inactive) in the test with K562; 21.6 µM (inactive) in the test with KM12. Further, the GI50 was 24.1 µM (inactive) in the test on MOLT-4; 24.8 µM (inactive) with NCI/ADR-RES; 13.5 µM (inactive) in the test on OVCAR-3; 19.8 µM (inactive) in the test on OVCAR-4; 32.4 µM (inactive) with OVCAR-5; 25.2 µM (inactive) in the test with SK-MEL-2. For the same compound, the GI50 is 19.2 µM (inactive) in the test with SK-MEL-5; 23.9 µM (inactive) in the test on SN12C; 31 µM (inactive) in the test with SW-620; 25.9 µM (inactive) in the test with UACC-257; 17.9 µM (inactive) in the test with UO-31.

For the compound `O=c1c(C(c2ccccc2)c2c(O)oc3cc(O)ccc3c2=O)c(O)oc2cc(O)ccc12`, the GI50 in the test on HCT-116 is > 100 µM (inactive); in the test on HCT-15, more than 100 µM; with HL-60 it was > 100 µM (inactive); in the test with HOP-92, > 100 µM (inactive); with K562, > 100 µM (inactive); in the test with MOLT-4, > 100 µM (inactive). For the same compound, the GI50 in the test with NCI/ADR-RES is > 100 µM (inactive); in the test on OVCAR-3, > 100 µM (inactive); in the test on OVCAR-4, > 100 µM (inactive); in the test on OVCAR-5, > 100 µM (inactive); in the test on SK-MEL-2, > 100 µM (inactive); in the test on SK-MEL-5, 52 µM (inactive). For the same compound, the GI50 with SN12C, in the test on SW-620, in the test on U-251, in the test with UACC-257 and in the test on UO-31 was > 100 µM (inactive) in each case.
